In brackets after ≈: the same amount, converted by molar mass. Like-named read-outs stand apart in the source and are kept apart here.
Legend:
CYP3A4 = conditions: cited from earlier work
HBV [1] = assay: HBV replication inhibition assay; type: cell-based, HBV genotype D; conditions: for activity at 10 µM: Hepatitis B virus, HepDES19, 72 h; for anti-HBV activity in words: initial screening, SAR discussion
[2] = tested on: HBV DNA, HBsAg and pregenomic RNA; conditions: after 28 days of treatment with GLS4; cited from earlier work
HBV [3] = conditions: effective concentration 90%; cited from earlier work
HCV genotype 1a = conditions: read-out: GT1a EC50; HCV NS5A inhibitors; cited from earlier work
HCV genotype 1b = conditions: read-out: GT1b EC50; HCV NS5A inhibitors; cited from earlier work

C[C@@H](O[C@H]1OCCN(Cc2n[nH]c(=O)[nH]2)[C@H]1c1ccc(F)cc1)c1cc(C(F)(F)F)cc(C(F)(F)F)c1 [Aprepitant]
CYP3A4 inhibition in words (CYP3A4): moderate CYP3A4 inhibitor

Nc1ccn([C@@H]2CS[C@H](CO)O2)c(=O)n1 [Compound 3TC, lamivudine]
activity at 10 µM (HBV [1]; read-out: Minus DNA (%) (10μM)): 54.6% | activity at 10 µM (HBV [1]; read-out: Plus DNA (%) (10μM)): 16.2%

CCOC(=O)C1=C(CN2CCC3(CCNC3)C2=O)NC(c2nccs2)=NC1c1ccc(F)cc1Br (stereo not drawn) [Compound 5b, ethyl 4-(2-bromo-4-fluorophenyl)-6-((1-oxo-2,7-diazaspiro[4.4]nonan-2-yl)methyl)-2-(thiazol-2-yl)-1,4-dihydropyrimidine-5-carboxylate]
anti-HBV activity in words (HBV [1]): inactive

CCOC(=O)C1=C(CN2CC3(CCNC3)CC2=O)NC(c2nccs2)=NC1c1ccc(F)cc1Br (stereo not drawn) [Compound 5c, ethyl 4-(2-bromo-4-fluorophenyl)-6-((3-oxo-2,7-diazaspiro[4.4]nonan-2-yl)methyl)-2-(thiazol-2-yl)-1,4-dihydropyrimidine-5-carboxylate]
anti-HBV activity in words (HBV [1]): inactive

CCOC(=O)C1=C(CN2CCC3(CCNC3)CC2)NC(c2nccs2)=NC1c1ccc(F)cc1Br (stereo not drawn) [Compound 5e, ethyl 6-((2,8-diazaspiro[4.5]decan-8-yl)methyl)-4-(2-bromo-4-fluorophenyl)-2-(thiazol-2-yl)-1,4-dihydropyrimidine-5-carboxylate]
anti-HBV activity in words (HBV [1]): inactive

CCOC(=O)C1=C(CN2CCC3(CCNC3)C2)NC(c2nccs2)=NC1c1ccc(F)cc1Br (stereo not drawn) [Compound 5i, ethyl 6-((2,7-diazaspiro[4.4]nonan-2-yl)methyl)-4-(2-bromo-4-fluorophenyl)-2-(thiazol-2-yl)-1,4-dihydropyrimidine-5-carboxylate]
anti-HBV activity in words (HBV [1]): inactive or less potent

CCOC(=O)C1=C(CN2CCOCC2)NC(c2nccs2)=N[C@H]1c1ccc(F)cc1Br [GLS4, Ethyl4-(2-bromo-4-fluorophenyl)-6-(morpholinomethyl)-2-(thiazol-2-yl)-1,4-dihydropyrimidine-5-carboxylate]
HBV DNA, HBsAg and pregenomic RNA in patients [2]: strong downward trend | EC90 (HBV [3]): 0.0557 µg/mL (≈ 0.109 µM)

COC(=O)N[C@H](C(=O)N1CC2(CC2)C[C@H]1c1nc(-c2ccc3c(c2)C(F)(F)c2cc(-c4ccc5[nH]c([C@@H]6[C@H]7CC[C@H](C7)N6C(=O)[C@@H](NC(=O)OC)C(C)C)nc5c4)ccc2-3)c[nH]1)C(C)C [Ledipasvir]
EC50 (HCV genotype 1a): 31 pM | EC50 (HCV genotype 1b): 4 pM

C[C@@H](OC[C@@]1(c2ccccc2)CC[C@]2(CCC(=O)N2)CN1)c1cc(C(F)(F)F)cc(C(F)(F)F)c1 [Rolapitant]
CYP3A4 inhibition in words (CYP3A4): no inhibitory effect

Source: PMC10591454 (European journal of medicinal chemistry, 2021)
